Legend:
Type in all cases: functional
Botrytis cinerea [1] = assay: Fungicidal activity against anilinopyrimidine-sensitive Botryotinia fuckeliana KU-59 isolated from grape plant assessed as inhibition of mycelial growth at 30 mg/l after 4 days; settings: KU-59, 96 h, read-out: GI
Botrytis cinerea [2] = assay: Fungicidal activity against anilinopyrimidine-sensitive Botryotinia fuckeliana KU-59 isolated from grape plant assessed as inhibition of mycelial growth at 10 mg/l after 4 days; settings: KU-59, 96 h, read-out: GI
Botrytis cinerea [3] = assay: Fungicidal activity against anilinopyrimidine-sensitive Botryotinia fuckeliana KU-59 isolated from grape plant assessed as inhibition of mycelial growth at 3 mg/l after 4 days; settings: KU-59, 96 h, read-out: GI
Botrytis cinerea [4] = assay: Fungicidal activity against anilinopyrimidine-sensitive Botryotinia fuckeliana KU-59 isolated from grape plant assessed as inhibition of mycelial growth at 1 mg/l after 4 days; settings: KU-59, 96 h, read-out: GI
Botrytis cinerea [5] = assay: Fungicidal activity against anilinopyrimidine-sensitive Botryotinia fuckeliana KU-59 isolated from grape plant assessed as inhibition of mycelial growth at 0.3 mg/l after 4 days; settings: KU-59, 96 h, read-out: GI
Botrytis cinerea [6] = assay: Fungicidal activity against anilinopyrimidine-sensitive Botryotinia fuckeliana KU-59 isolated from grape plant assessed as inhibition of mycelial growth at 0.1 mg/l after 4 days; settings: KU-59, 96 h, read-out: GI
Botrytis cinerea [7] = assay: Fungicidal activity against anilinopyrimidine-sensitive Botryotinia fuckeliana KU-01 isolated from grape plant assessed as inhibition of mycelial growth at 100 mg/l after 4 days; settings: KU-01, 96 h, read-out: GI
Botrytis cinerea [8] = assay: Fungicidal activity against anilinopyrimidine-sensitive Botryotinia fuckeliana KU-01 isolated from grape plant assessed as inhibition of mycelial growth at 30 mg/l after 4 days; settings: KU-01, 96 h, read-out: GI
Botrytis cinerea [9] = assay: Fungicidal activity against anilinopyrimidine-sensitive Botryotinia fuckeliana KU-01 isolated from grape plant assessed as inhibition of mycelial growth at 10 mg/l after 4 days; settings: KU-01, 96 h, read-out: GI
Botrytis cinerea [10] = assay: Fungicidal activity against anilinopyrimidine-sensitive Botryotinia fuckeliana KU-01 isolated from grape plant assessed as inhibition of mycelial growth at 3 mg/l after 4 days; settings: KU-01, 96 h, read-out: GI
Botrytis cinerea [11] = assay: Fungicidal activity against anilinopyrimidine-sensitive Botryotinia fuckeliana KU-01 isolated from grape plant assessed as inhibition of mycelial growth at 1 mg/l after 4 days; settings: KU-01, 96 h, read-out: GI
Botrytis cinerea [12] = assay: Fungicidal activity against anilinopyrimidine-sensitive Botryotinia fuckeliana KU-59 infected in strawberry fruit assessed as inhibition of mycelial growth at 200 mg/l treated 2-3 hr before challenge measured after 5 days; settings: read-out: GI
Botrytis cinerea [13] = assay: Fungicidal activity against anilinopyrimidine-sensitive Botryotinia fuckeliana KU-59 infected in strawberry fruit assessed as inhibition of mycelial growth at 100 mg/l treated 2-3 hr before challenge measured after 5 days; settings: read-out: GI
Botrytis cinerea [14] = assay: Fungicidal activity against anilinopyrimidine-sensitive Botryotinia fuckeliana KU-59 infected in strawberry fruit assessed as inhibition of mycelial growth at 50 mg/l treated 2-3 hr before challenge measured after 5 days; settings: read-out: GI
Botrytis cinerea [15] = assay: Fungicidal activity against anilinopyrimidine-sensitive Botryotinia fuckeliana KU-01 infected in strawberry fruit assessed as inhibition of mycelial growth at 200 mg/l treated 2-3 hr before challenge measured after 5 days; settings: read-out: GI
Botrytis cinerea [16] = assay: Fungicidal activity against anilinopyrimidine-sensitive Botryotinia fuckeliana KU-01 infected in strawberry fruit assessed as inhibition of mycelial growth at 100 mg/l treated 2-3 hr before challenge measured after 5 days; settings: read-out: GI
Botrytis cinerea [17] = assay: Fungicidal activity against anilinopyrimidine-sensitive Botryotinia fuckeliana KU-01 infected in strawberry fruit assessed as inhibition of mycelial growth at 50 mg/l treated 2-3 hr before challenge measured after 5 days; settings: read-out: GI
Botrytis cinerea [18] = assay: Fungicidal activity against anilinopyrimidine-resistant Botryotinia fuckeliana CH164.94 infected in strawberry fruit assessed as inhibition of mycelial growth at 200 mg/l treated 2-3 hr before challenge measured after 5 days; settings: read-out: GI
Botrytis cinerea [19] = assay: Fungicidal activity against anilinopyrimidine-resistant Botryotinia fuckeliana CH164.94 infected in strawberry fruit assessed as inhibition of mycelial growth at 100 mg/l treated 2-3 hr before challenge measured after 5 days; settings: read-out: GI
Botrytis cinerea [20] = assay: Fungicidal activity against anilinopyrimidine-resistant Botryotinia fuckeliana CH164.94 infected in strawberry fruit assessed as inhibition of mycelial growth at 50 mg/l treated 2-3 hr before challenge measured after 5 days; settings: read-out: GI
Botrytis cinerea [21] = assay: Fungicidal activity against anilinopyrimidine-resistant Botryotinia fuckeliana CH15.93 infected in strawberry fruit assessed as inhibition of mycelial growth at 200 mg/l treated 2-3 hr before challenge measured after 5 days; settings: read-out: GI
Botrytis cinerea [22] = assay: Fungicidal activity against anilinopyrimidine-resistant Botryotinia fuckeliana CH15.93 infected in strawberry fruit assessed as inhibition of mycelial growth at 100 mg/l treated 2-3 hr before challenge measured after 5 days; settings: read-out: GI
Botrytis cinerea [23] = assay: Fungicidal activity against anilinopyrimidine-resistant Botryotinia fuckeliana CH15.93 infected in strawberry fruit assessed as inhibition of mycelial growth at 50 mg/l treated 2-3 hr before challenge measured after 5 days; settings: read-out: GI
Botrytis cinerea [24] = assay: Fungicidal activity against anilinopyrimidine-resistant Botryotinia fuckeliana CH12.92 infected in strawberry fruit assessed as inhibition of mycelial growth at 200 mg/l treated 2-3 hr before challenge measured after 5 days; settings: read-out: GI
Botrytis cinerea [25] = assay: Fungicidal activity against anilinopyrimidine-resistant Botryotinia fuckeliana CH12.92 infected in strawberry fruit assessed as inhibition of mycelial growth at 100 mg/l treated 2-3 hr before challenge measured after 5 days; settings: read-out: GI

## CC#Cc1cc(C)nc(Nc2ccccc2)n1 [MEPANIPYRIM]
Botrytis cinerea [1]
  inhibition of growth at 30 µg/mL: 100%
Botrytis cinerea [2]
  inhibition of growth at 10 µg/mL: 100%
Botrytis cinerea [3]
  inhibition of growth at 3 µg/mL: 100%
Botrytis cinerea [4]
  inhibition of growth at 1 µg/mL: 100%
Botrytis cinerea [5]
  inhibition of growth at 0.3 µg/mL: 100%
Botrytis cinerea [6]
  inhibition of growth at 0.1 µg/mL: 86.4%
Botrytis cinerea [7]
  inhibition of growth at 100 µg/mL: 100%
Botrytis cinerea [8]
  inhibition of growth at 30 µg/mL: 100%
Botrytis cinerea [9]
  inhibition of growth at 10 µg/mL: 100%
Botrytis cinerea [10]
  inhibition of growth at 3 µg/mL: 100%
Botrytis cinerea [11]
  inhibition of growth at 1 µg/mL: 100%
Botrytis cinerea [12]
  inhibition of growth at 200 µg/mL: 100%
Botrytis cinerea [13]
  inhibition of growth at 100 µg/mL: 100%
Botrytis cinerea [14]
  inhibition of growth at 50 µg/mL: 100%
Botrytis cinerea [15]
  inhibition of growth at 200 µg/mL: 100%
Botrytis cinerea [16]
  inhibition of growth at 100 µg/mL: 100%
Botrytis cinerea [17]
  inhibition of growth at 50 µg/mL: 100%
Botrytis cinerea [18]
  inhibition of growth at 200 µg/mL: 0%
Botrytis cinerea [19]
  inhibition of growth at 100 µg/mL: 0%
Botrytis cinerea [20]
  inhibition of growth at 50 µg/mL: 0%
Botrytis cinerea [21]
  inhibition of growth at 200 µg/mL: 0%
Botrytis cinerea [22]
  inhibition of growth at 100 µg/mL: 0%
Botrytis cinerea [23]
  inhibition of growth at 50 µg/mL: 0%
Botrytis cinerea [24]
  inhibition of growth at 200 µg/mL: 0%
Botrytis cinerea [25]
  inhibition of growth at 100 µg/mL: 0%
